The test system of one assay is Langerhans's islets. Put plainly: In vitro glucose stimulated insulin secretion from isolated Langerhans's islets. Type of assay: cell-based. As to conditions: for glucose stimulated insulin secretion, percentage of the effect of 10 mmolar glucose alone: hydrochloride, with 10 mM glucose, isolated islets preincubated 24 hours at 37° C. How it is done:
In vitro determination of the effect or the peptides on the glucose stimulated insulin secretion was carried out on Langerhans's islets isolated by collagenase technique and preincubated 24 hours at 37° C. Secretion tests were conducted with 10 mM of glucose and three peptide concentrations.
All peptides have been tested in the form of their hydrochlorides together with 10 mmolar glucose, and the value is calculated as a percentage of the effect of 10 mmolar glucose alone.

For assay [1] the following is noted: pharmacological dosages; cited from earlier work.

The text below walks through data of US4265884A, “Therapeutically active polypeptides or acid addition salts thereof and a process for producing such compounds” (Nordisk Insulinlaboratorium, priority 1978, dated 1981).

Where a SMILES comes first, the peptide text is derived from it.

For the compound `COC(=O)[C@H](CC(C)C)NC(=O)[C@H](CCCNC(=N)N)NC(=O)[C@H](CCC(N)=O)NC(=O)[C@H](CC(C)C)NC(=O)[C@H](CCCNC(=N)N)NC(=O)[C@H](C)NC(=O)[C@@H](N)CO` [Peptide 5, seralaargleuglnargleuOMe, 3HCl] (H-SARLQRL-OMe), the “glucose stimulated insulin secretion, percentage of the effect of 10 mmolar glucose alone” value amounted to 268% with Langerhans's islets (peptide 5mM) and 140% in the assay on Langerhans's islets (peptide 5 × 10^-1 mM).
secretin: the “effect on insulin liberation from isolated Langerhans's islets (in words)” value in the assay with Langerhans's islets (same in vitro conditions as for the present peptides) was “not been possible to make secretin affect the insulin liberation”. Also, in assay [1], the blood sugar level entry is given as “without affecting the blood sugar level” and the secretion of insulin entry is reported as “potentiate the secretion of insulin”.
In the case of `COC(=O)[C@H](CC(C)C)NC(=O)[C@H](CCCNC(=N)N)NC(=O)[C@H](CCC(N)=O)NC(=O)[C@H](CC(C)C)NC(=O)[C@H](CCCNC(=N)N)NC(=O)[C@H](C)NC(=O)[C@H](CO)NC(=O)[C@@H](N)CC(=O)O` [Peptide 6, aspseralaargleuglnargleuOMe, 3HCl] (H-DSARLQRL-OMe), the “glucose stimulated insulin secretion, percentage of the effect of 10 mmolar glucose alone” value with Langerhans's islets (peptide 5mM) was determined as 142%; in the assay with Langerhans's islets (peptide 5 × 10^-1 mM) it was 110%.
Turning to `COC(=O)[C@H](CC(C)C)NC(=O)[C@H](CCCNC(=N)N)NC(=O)[C@H](CCC(N)=O)NC(=O)[C@H](CC(C)C)NC(=O)[C@@H](N)CCCNC(=N)N` [Peptide 4, argleuglnargleuOMe, 3HCl] (H-RLQRL-OMe), the “glucose stimulated insulin secretion, percentage of the effect of 10 mmolar glucose alone” value stood at 153% with Langerhans's islets (peptide 5mM), 120% with Langerhans's islets (peptide 5 × 10^-1 mM) and 135% with Langerhans's islets (peptide 5 × 10^-2 mM).
`COC(=O)[C@H](CC(C)C)NC(=O)[C@H](CCCNC(=N)N)NC(=O)[C@H](CCC(N)=O)NC(=O)[C@@H](N)CC(C)C` [Peptide 3, leuglnargleuOMe, 2HCl] (H-LQRL-OMe): the “glucose stimulated insulin secretion, percentage of the effect of 10 mmolar glucose alone” value with Langerhans's islets (peptide 5mM) is given as 240%; with Langerhans's islets (peptide 5 × 10^-1 mM), 127%; in the assay with Langerhans's islets (peptide 5 × 10^-2 mM), 124%.
Taken in the same sequence, the figures for `COC(=O)[C@H](CC(C)C)NC(=O)[C@H](CCCNC(=N)N)NC(=O)[C@@H](N)CCC(N)=O` [Peptide 1, glnargleuOMe, 2HCl] (H-Gln-Arg-Leu-OMe) were 151%, 113% and 144%.
